Results reported in patent publication US7125671B2, “Nucleic acid amplification with terminal-phosphate labeled nucleotides” (GE Healthcare Bio-Sciences Corp., priority 2003, dated 2006).

Experiments:
[1] = Non-enzymatic hydrolysis of dT4P-DDAO in the presence of MnCl2, effect of other salts (FIG. 5); conditions: 10 or 25 mM salt; 0.5 mM MnCl2; 25 mM Hepes pH 8.1; 95° C. for 60 minutes
Procedure: Twenty μl of 25 mM Hepes, pH 8.1, containing 0.5 mM MnCl2, 1 μm dT4P-DDAO and 10 or 25 mM inorganic or organic salt (see FIG. 5) was heated at 95° C. for 60 minutes. 4 μl of each sample was treated with BAP as described above and read on Tecan ultra plate reader. An unheated sample with MnCl2 (water lane) and a heated sample without Hepes and MnCl2 were used as controls. Fluorescence counts were converted into % degradation as described above.

[2] = Non-enzymatic hydrolysis of dT4P-DDAO in the presence of MnCl2, effect of ammonium sulfate and related salts (FIG. 4); format: physicochemical; conditions: 10 mM salt; 0.5 mM MnCl2; 25 mM Tris.HCl pH 9.0; 95° C. for 60 minutes
Procedure: Four μl of each reaction mix was mixed with 16 μl of BAP solution in Hepes (0.005 units BAP/μl) and incubated at 37° C. for 60 minutes. Samples were read on Tecan ultra plate reader. Un heated sample and unheated sample without MnCl2 were used as controls. Raw fluorescence counts were converted into % degradation by using fluorescence counts from a Snake Venom phosphodiesterase hydrolyzed sample as 100% degraded sample.

T. ba polymerase = test: PCR amplification with terminal-phosphate labeled nucleoside polyphosphates in the presence of stabilizing additives (FIG. 6); format: biochemical, Thermococcus barosii; conditions: dT4P-Me, dC4P-Me, 0.25 mM MnCl2, M13 DNA, 35 cycles
Procedure: Polymerase chain reaction (PCR) mixtures (20 μl) contained 25 mM Hepes (pH 8.1), 10 mM KCl, 2 mM MgSO4, 0.25 mM MnCl2, 1 mg/ml bovine serum albumin, 0.01% (v/v) Tween-20 and 10–25 mM salt as shown in FIG. 6. Each sample also contained 20 μm each of dA4P-Me, dT4P-Me, dC4P-Me, 200 μm dG4P-FlEt, 0.006 units/μl BAP, 2 units of T. ba polymerase, 0.1 μm −40 M13 forward primer, 0.1 μm −28 M13 reverse primer and 0.2 ng M13 DNA. In addition to the terminal-phosphate labeled nucleotide, terminal methyl-blocked dNTP's were used instead of normal dNTP's to prevent degradation by BAP (phosphatase). Latter is required for signal generation from dye-polyphosphate after the nucleotide is incorporated into DNA by polymerase. Reactions were carried out for 35 thermal cycles of 90° C., 30 sec.; 55° C., 30 sec.; and 65° C., 300 sec. Reaction products were loaded onto 1.6% agarose gels. The gels were stained with SYBR Gold (Molecular Probes) according to the manufacturers' instructions and scanned at 532 nm using a Typhoon fluorescence scanner (Amersham Biosciences). Gel size markers were a 100 bp ladder (Amersham Biosciences).

[3] = target: pfu (with A486Y mutation) polymerase (Pyrococcus furiosus, UniProt P61875, A486Y); test: Quantitative PCR with terminal-phosphate labeled nucleoside polyphosphates on ABI 7900; format: biochemical; conditions: 200 μm dG4P-FlEt with dA4P-Me, dT4P-Me, dC4P-Me; BAP; 50 cycles; FIG. 7
Procedure: Polymerase chain reaction (PCR) mixtures (20 μl) contained 25 mM Tris.HCl (pH 9.0), 10 mM KCl, 2 mM MgSO4, 0.25 mM MnCl2, 1 mg/ml bovine serum albumin and 0.01% (v/v) Tween-20. Each sample also contained 20 μm each of dA4P-Me, dT4P-Me, dC4P-Me, 200 μm dG4P-FlEt, 0.005 units/μl BAP, 2 units of pfu (with A486Y mutation) polymerase, 0.1 μm −40 M13 forward primer, 0.1 μM −28 M13 reverse primer and 1.2×10^6–1.2×10^9 copies of M13 DNA. In addition to the terminal-phosphate labeled nucleotide, the remaining nucleotides were blocked with a methyl group on the terminal phosphate to prevent degradation by BAP. Reactions were carried out for 50 thermal cycles of 90° C., 30 sec.; 55° C., 30 sec.; and 65° C., 300 sec on ABI 7900 instrument.
Reaction products were also loaded onto 1.6% agarose gels. The gels were stained with SYBR Gold (Molecular Probes) according to the manufacturers' instructions and scanned at 532 nm using a Typhoon fluorescence scanner (Amersham Biosciences) to show the formation of PCR product (FIG. 8). Gel size markers were a 100 bp ladder (Amersham Biosciences).

[4] = Non-enzymatic hydrolysis of terminal-phosphate labeled nucleoside polyphosphate on thermal cycling, effect of glycerol; format: physicochemical; conditions: 5% glycerol; high temperatures
Procedure: Seventy μl samples containing 50 mM Hepes, pH 8.0, 5 mM MgCl2, 0.5 mM MnCl2, 0.01% Tween-20, 1 μm ddT4P-EtFl, 100 nM primer/template, 0.0036 units/μl SAP with or without 5% glycerol were cycled as follows: 95° C., 30 sec and 50° C., 3 min, repeat 10 times. Amount of free dye formed was checked in a fluorimeter.

pfu (with A486Y mutation) polymerase, sequence (P61875 whole entry A486Y): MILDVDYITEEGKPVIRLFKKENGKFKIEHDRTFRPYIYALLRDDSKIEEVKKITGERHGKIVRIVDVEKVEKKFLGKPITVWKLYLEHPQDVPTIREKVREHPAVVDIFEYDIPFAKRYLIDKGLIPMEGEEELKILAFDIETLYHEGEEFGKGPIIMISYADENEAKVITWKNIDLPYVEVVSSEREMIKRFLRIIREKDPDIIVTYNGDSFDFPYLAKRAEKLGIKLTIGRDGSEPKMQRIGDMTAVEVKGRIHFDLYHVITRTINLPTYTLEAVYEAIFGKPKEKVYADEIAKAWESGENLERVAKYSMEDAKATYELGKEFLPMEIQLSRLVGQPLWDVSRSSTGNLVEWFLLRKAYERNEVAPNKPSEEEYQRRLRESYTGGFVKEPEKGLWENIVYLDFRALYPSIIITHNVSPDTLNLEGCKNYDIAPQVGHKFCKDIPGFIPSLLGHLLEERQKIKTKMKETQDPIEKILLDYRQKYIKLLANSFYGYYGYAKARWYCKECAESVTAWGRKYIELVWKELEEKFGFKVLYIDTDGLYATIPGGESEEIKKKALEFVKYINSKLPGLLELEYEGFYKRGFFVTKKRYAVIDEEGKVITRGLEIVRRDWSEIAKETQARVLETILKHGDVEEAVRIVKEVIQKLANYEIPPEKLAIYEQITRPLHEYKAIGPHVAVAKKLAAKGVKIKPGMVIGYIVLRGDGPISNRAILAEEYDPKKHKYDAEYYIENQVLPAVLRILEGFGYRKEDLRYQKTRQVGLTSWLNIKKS

N.N.O=S(=O)(O)O [ammonium sulfate]
stabilization of dT4P-DDAO (% degradation) [1]: stabilize the nucleotide
stabilization of dT4P-DDAO (% degradation) [2]: clearly stabilizes
PCR product formation in the presence of the additive (T. ba polymerase; 10–25 mM salt, dA4P-Me, dG4P-FlEt): PCR product was separated

CCOc1ccc2c(c1)Oc1cc(OP(=O)(O)OP(=O)(O)OP(=O)(O)OP(=O)(O)OC[C@H]3O[C@@H](n4cnc5c(=O)[nH]c(N)nc54)C[C@@H]3O)ccc1C21OC(=O)c2ccccc21 (stereo partly drawn) [dG4P-FlEt, 2′-Deoxyguanosine-5′-(δ-3′-(6′-ethoxyfluorescein)) tetraphosphate]
cycle count at fluorescence threshold plotted against input M13 DNA copies [3]: straight line
PCR product formation (T. ba polymerase; absence of any stabilizer, with dA4P-Me): PCR product was separated

OCC(O)CO [glycerol]
effect of additive on degradation of ddT4P-EtFl caused by manganese [4]: reduces the amount of degradation caused by manganese
